Values of other authors in patent US20220387439A1, “ANTI-INFLAMMATORY PHARMACEUTICAL COMPOSITION COMPRISING PROBIOTICS AND ANTIBIOTICS, AND METHOD USING SAME” (priority 2019, published 2022).

System: patient with otitis media
Settings: Patient 1, otitis media for more than several years; antibiotics taken at other hospitals

N[C@@H](C(=O)N[C@@H]1C(=O)N2C(C(=O)O)=C(Cl)CS[C@H]12)c1ccccc1 [cefaclor]
treatment effect of antibiotics taken earlier: no treatment effect
